From PubChem BioAssay AID1259407 (Chemical Carcinogenesis Research Information System (CCRIS), 2018)
Active and inactive are the calls of the source. How the calls were made is not given here.

Tested on: CCRIS mutagenicity, Ames/micronucleus/aberration tests
Assay: CCRIS mutagenicity studies
[1] = Test System: AMES SALMONELLA TYPHIMURIUM, Strain/Indicator: TA98, Metabolic Activation: NONE, Method: STANDARD PLATE
[2] = Test System: AMES SALMONELLA TYPHIMURIUM, Strain/Indicator: TA98, Metabolic Activation: RAT, LIVER, S-9, AROCLOR 1254, Method: STANDARD PLATE
[3] = Test System: AMES SALMONELLA TYPHIMURIUM, Strain/Indicator: TA100, Metabolic Activation: NONE, Method: STANDARD PLATE
[4] = Test System: AMES SALMONELLA TYPHIMURIUM, Strain/Indicator: TA100, Metabolic Activation: RAT, LIVER, S-9, AROCLOR 1254, Method: STANDARD PLATE

For `CN(C)c1ccc2nc3ccc(=[N+](C)C)cc-3sc2c1`, which mutagenic call (End Point: In vitro chromosomal aberrations, Test System: Chinese hamster ovary cells, Metabolic Activation: None) is on record?
The mutagenic call was “active; positive”.

What about the mutagenic call (End Point: In vitro chromosomal aberrations, Test System: Chinese hamster ovary cells, Metabolic Activation: Rat, Liver, S-9, Aroclor) of the same compound?
The mutagenic call was “active; positive”.

And the mutagenic call (End Point: In vivo micronucleus, Test System: Bone marrow, Species: Mouse, Strain/Sex: B6C3F1/Male, Route: Intraperitoneal)?
The mutagenic call was “inactive; negative”.

And the mutagenic call (End Point: In vivo micronucleus, Test System: Peripheral blood normochromatic erythrocytes, Species: Mouse, Strain/Sex: B6C3F1/Female, Route: Oral)?
Its mutagenic call is “inactive; negative”.

What about the mutagenic call (End Point: In vivo micronucleus, Test System: Peripheral blood normochromatic erythrocytes, Species: Mouse, Strain/Sex: B6C3F1/Male, Route: Intraperitoneal) of the same compound?
The mutagenic call was “inactive; negative”.

What about the mutagenic call (End Point: In vivo micronucleus, Test System: Peripheral blood normochromatic erythrocytes, Species: Mouse, Strain/Sex: B6C3F1/Male, Route: Oral) of the same compound?
The mutagenic call was “inactive; negative”.

And the mutagenic call (Test System: AMES SALMONELLA TYPHIMURIUM, Strain/Indicator: TA98, Metabolic Activation: HAMSTER, LIVER, S-9, AROCLOR 1254, Method: STANDARD PLATE)?
The mutagenic call was “active; positive”.

What about the mutagenic call [1] of the same compound?
The mutagenic call was “inactive; negative”.

And the mutagenic call [2]?
The mutagenic call was “active; positive”.

And the mutagenic call [3]?
Its mutagenic call is “active; positive”.

What about the mutagenic call [4] of the same compound?
The mutagenic call was “active; positive”.

What about the mutagenic call (Test System: Ames Salmonella typhimurium, Strain/Indicator: TA98, Metabolic Activation: Hamster, Liver, S-9, Aroclor 1254 (30%), Method: Standard plate) of the same compound?
The mutagenic call was “active; positive”.

What about the mutagenic call (Test System: Ames Salmonella typhimurium, Strain/Indicator: TA98, Metabolic Activation: None, Method: Preincubation) of the same compound?
The mutagenic call was “active; positive”.

And the mutagenic call (Test System: Ames Salmonella typhimurium, Strain/Indicator: TA98, Metabolic Activation: None, Method: Standard plate)?
The mutagenic call was “active; positive”.

And the mutagenic call (Test System: Ames Salmonella typhimurium, Strain/Indicator: TA98, Metabolic Activation: Rat, Liver, S-9, Aroclor 1254 (10%), Method: Preincubation)?
Its mutagenic call is “active; positive”.

And the mutagenic call (Test System: Ames Salmonella typhimurium, Strain/Indicator: TA98, Metabolic Activation: Rat, Liver, S-9, Aroclor 1254 (30%), Method: Standard plate)?
The mutagenic call was “active; positive”.

What about the mutagenic call (Test System: Ames Salmonella typhimurium, Strain/Indicator: TA100, Metabolic Activation: Hamster, Liver, S-9, Aroclor 1254 (30%), Method: Standard plate) of the same compound?
Its mutagenic call is “active; positive”.

What about the mutagenic call (Test System: Ames Salmonella typhimurium, Strain/Indicator: TA100, Metabolic Activation: None, Method: Preincubation) of the same compound?
Its mutagenic call is “active; positive”.

And the mutagenic call (Test System: Ames Salmonella typhimurium, Strain/Indicator: TA100, Metabolic Activation: None, Method: Standard plate)?
The mutagenic call was “inactive; negative (ntp describes as equivocal)”.

What about the mutagenic call (Test System: Ames Salmonella typhimurium, Strain/Indicator: TA100, Metabolic Activation: Rat, Liver, S-9, Aroclor 1254 (10%), Method: Preincubation) of the same compound?
The mutagenic call was “active; positive”.

What about the mutagenic call (Test System: Ames Salmonella typhimurium, Strain/Indicator: TA100, Metabolic Activation: Rat, Liver, S-9, Aroclor 1254 (30%), Method: Standard plate) of the same compound?
Its mutagenic call is “active; positive”.

What about the mutagenic call (Test System: E. coli, Strain/Indicator: WP uvrA/pKM101, Metabolic Activation: None, Method: Preincubation) of the same compound?
Its mutagenic call is “active; positive”.

And the mutagenic call (Test System: E. coli, Strain/Indicator: WP uvrA/pKM101, Metabolic Activation: Rat, Liver, S-9, Aroclor 1254 (10%), Method: Preincubation)?
Its mutagenic call is “active; positive”.

What about the mutagenic call (Test System: MOUSE LYMPHOMA, Strain/Indicator: L5178Y (TK+/TK-), Metabolic Activation: NONE, Method: SUSPENSION/PLATE) of the same compound?
The mutagenic call was “active; positive”.

What about the mutagenic call (Test System: MOUSE LYMPHOMA, Strain/Indicator: L5178Y (TK+/TK-), Metabolic Activation: RAT, LIVER, S-9, Method: SUSPENSION/PLATE) of the same compound?
The mutagenic call was “active; positive”.

What about the mutagenic call (Test System: Mouse lymphoma, Strain/Indicator: L5178Y (tk+/tk-), Metabolic Activation: None, Method: Suspension/plate) of the same compound?
The mutagenic call was “active; positive”.

And the mutagenic call (Test System: Mouse lymphoma, Strain/Indicator: L5178Y (tk+/tk-), Metabolic Activation: Rat, Liver, S-9, Aroclor 1254, Method: Suspension/plate)?
The mutagenic call was “active; positive”.

With `CCOC(=O)c1[nH]c2ccccc2c1N=Cc1ccc(C)cc1` as the compound, how does the mutagenic call (Test System: AMES SALMONELLA TYPHIMURIUM, Strain/Indicator: TA97, Metabolic Activation: NONE, Method: STANDARD PLATE) read?
Its mutagenic call is “inactive; negative”.

What about the mutagenic call (Test System: AMES SALMONELLA TYPHIMURIUM, Strain/Indicator: TA97, Metabolic Activation: RAT, LIVER, S-9, AROCLOR 1254, Method: STANDARD PLATE) of the same compound?
Its mutagenic call is “inactive; negative”.

What about the mutagenic call [1] of the same compound?
Its mutagenic call is “inactive; negative”.

What about the mutagenic call [2] of the same compound?
Its mutagenic call is “inactive; negative”.

What about the mutagenic call [3] of the same compound?
Its mutagenic call is “inactive; negative”.

What about the mutagenic call [4] of the same compound?
The mutagenic call was “inactive; negative”.

What about the mutagenic call (Test System: AMES SALMONELLA TYPHIMURIUM, Strain/Indicator: TA102, Metabolic Activation: NONE, Method: STANDARD PLATE) of the same compound?
The mutagenic call was “inactive; negative”.

What about the mutagenic call (Test System: AMES SALMONELLA TYPHIMURIUM, Strain/Indicator: TA102, Metabolic Activation: RAT, LIVER, S-9, AROCLOR 1254, Method: STANDARD PLATE) of the same compound?
The mutagenic call was “inactive; negative”.

With `CNc1ccc(C(=C2C=CC(=[N+](C)C)C=C2)c2ccc(N(C)C)cc2)cc1` as the compound, how does the mutagenic call (Test System: AMES SALMONELLA TYPHIMURIUM, Strain/Indicator: TA100, Method: PREINCUBATION) read?
The mutagenic call was “active; positive”.

With `CCCCC[C@@](C)(O)/C=C/[C@H]1[C@H](O)CC(=O)[C@@H]1C/C=C\CCCC(=O)O` as the compound, how does the mutagenic call [1] read?
The mutagenic call was “inactive; negative”.

And the mutagenic call (Test System: AMES SALMONELLA TYPHIMURIUM, Strain/Indicator: TA98, Metabolic Activation: S-9, Method: STANDARD PLATE)?
Its mutagenic call is “inactive; negative”.

And the mutagenic call [3]?
Its mutagenic call is “inactive; negative”.

What about the mutagenic call (Test System: AMES SALMONELLA TYPHIMURIUM, Strain/Indicator: TA100, Metabolic Activation: S-9, Method: STANDARD PLATE) of the same compound?
Its mutagenic call is “inactive; negative”.

What about the mutagenic call (Test System: AMES SALMONELLA TYPHIMURIUM, Strain/Indicator: TA1535, Metabolic Activation: NONE, Method: STANDARD PLATE) of the same compound?
Its mutagenic call is “inactive; negative”.

And the mutagenic call (Test System: AMES SALMONELLA TYPHIMURIUM, Strain/Indicator: TA1535, Metabolic Activation: S-9, Method: STANDARD PLATE)?
The mutagenic call was “inactive; negative”.

And the mutagenic call (Test System: AMES SALMONELLA TYPHIMURIUM, Strain/Indicator: TA1537, Metabolic Activation: NONE, Method: STANDARD PLATE)?
The mutagenic call was “inactive; negative”.

And the mutagenic call (Test System: AMES SALMONELLA TYPHIMURIUM, Strain/Indicator: TA1537, Metabolic Activation: S-9, Method: STANDARD PLATE)?
The mutagenic call was “inactive; negative”.

What about the mutagenic call (Test System: AMES SALMONELLA TYPHIMURIUM, Strain/Indicator: TA1538, Metabolic Activation: NONE, Method: STANDARD PLATE) of the same compound?
Its mutagenic call is “inactive; negative”.

And the mutagenic call (Test System: AMES SALMONELLA TYPHIMURIUM, Strain/Indicator: TA1538, Metabolic Activation: S-9, Method: STANDARD PLATE)?
The mutagenic call was “inactive; negative”.

And the mutagenic call (Test System: E. COLI, Strain/Indicator: WP2 UVRA, Metabolic Activation: NONE, Method: STANDARD PLATE)?
The mutagenic call was “inactive; negative”.

And the mutagenic call (Test System: E. COLI, Strain/Indicator: WP2 UVRA, Metabolic Activation: S-9, Method: STANDARD PLATE)?
The mutagenic call was “inactive; negative”.

Which results are given for `CC(C)c1cc(-c2ccccc2)cc(C(C)C)c1N`?
mutagenic call [1]: inactive; negative; mutagenic call (Test System: AMES SALMONELLA TYPHIMURIUM, Strain/Indicator: TA98, Metabolic Activation: RAT LIVER S-9, AROCLOR, Method: STANDARD PLATE): inactive; negative; mutagenic call [3]: inactive; negative; mutagenic call (Test System: AMES SALMONELLA TYPHIMURIUM, Strain/Indicator: TA100, Metabolic Activation: RAT LIVER S-9, AROCLOR, Method: STANDARD PLATE): inactive; negative
